Experimental data reported in paper PMC12455397 (Angewandte Chemie (International Ed. in English), 2025).

Experiments:
[1] = system: Nrf2 KO THP1 cells differentiated into macrophages; assay: RNA sequencing transcriptome analysis, Nrf2 KO THP-1 macrophages; type: cell-based; conditions: 12 h, CDDO-Me 0.1 µM, DMF, 24, 28 10 µM, KI-696 1 µM
[2] = system: differentiated THP1 macrophages (WT)
human Keap1 Kelch = human Keap1 Kelch (Homo sapiens, UniProt Q14145); assay: Fluorescence polarization (FP) competition assay with Cy5-Nrf2 peptide probe; conditions: for Ki: ≥3 individual measurements; for ligand efficiency (LE): from FP Ki; for fold improvement in binding affinity (FP) over parent analogue: 7 vs 4, 12 vs 7, 13 vs 12
human Keap1 Kelch, sequence (Q14145 321-609): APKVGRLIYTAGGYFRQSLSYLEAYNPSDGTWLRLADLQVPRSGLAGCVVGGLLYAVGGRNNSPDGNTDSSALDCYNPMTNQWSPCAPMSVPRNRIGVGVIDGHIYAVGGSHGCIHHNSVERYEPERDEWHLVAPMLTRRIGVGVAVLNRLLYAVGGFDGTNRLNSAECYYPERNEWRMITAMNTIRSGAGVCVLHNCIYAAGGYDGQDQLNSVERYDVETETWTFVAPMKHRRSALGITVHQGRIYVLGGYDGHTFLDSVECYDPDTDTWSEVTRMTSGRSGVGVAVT
Method: Fluorescence Polarization Assay
(3 nM) and human Keap1 Kelch at 14 nM in the 1×HBSTET assay buffer, as previously.[1, 3-5] In short, the assay was performed in black flat-bottom 384-well plates (Corning Life Sciences, NY) allowing an assay volume of 30 μL/well. Proper mixing and elimination of air bubbles was ascertained by spinning down the plates and incubation for 10–15 minutes at RT before measuring FP levels on a Safire2 plate-reader (Tecan, Männedorf, Switzerland). The Ki values of the compounds were determined by dose-response experiments (12-points, 4% DMSO in all wells), where FP values were fitted to the equation Y = Bottom + (Top - Bottom)/[1 + (10HillSlope*(LogIC50-X))]; X representing the logarithmic value of compound concentration. The resulting IC50 value, together with the Kd value (the dissociation constant between probe and Keap1 Kelch, determined in a prior experiment) and Keap1 Kelch concentrations, was used to calculate the theoretical competitive inhibition constant, the Ki value.[18]

[3] = WT, 12 h, CDDO-Me 0.1 µM, SFN, DMF, 24, 28 10 µM, KI-696 1 µM
[4] = FP (Ki/nM), Table S2, mean ± SEM, NA: not active (measured up to 4 mM)
[5] = Ki (FP), mean, text and figures

COC(=O)[C@]12CCC(C)(C)C[C@H]1[C@H]1C(=O)C=C3[C@@]4(C)C=C(C#N)C(=O)C(C)(C)[C@@H]4CC[C@@]3(C)[C@]1(C)CC2 [CDDO-Me, bardoxolone methyl]
number of up- or downregulated genes in Nrf2 KO cells [1]: 2149 genes
AKR1B10 FC ([2]; Table S3, THP-1, 12 h): 61,69 fold
CASP1 FC ([2]; Table S3, THP-1, 12 h): 1,31 fold
COL1A1 FC ([2]; Table S3, THP-1, 12 h): 3,46 fold
COL4A1 FC ([2]; Table S3, THP-1, 12 h): 0,30 fold
COL4A2 FC ([2]; Table S3, THP-1, 12 h): 0,49 fold
GPX1 FC ([2]; Table S3, THP-1, 12 h): 0,44 fold
GPX4 FC ([2]; Table S3, THP-1, 12 h): 0,91 fold
IFNAR1 FC ([2]; Table S3, THP-1, 12 h): 0,82 fold
IFNAR2 FC ([2]; Table S3, THP-1, 12 h): 0,52 fold
IFNGR1 FC ([2]; Table S3, THP-1, 12 h): 0,81 fold
IFNGR2 FC ([2]; Table S3, THP-1, 12 h): 0,41 fold
IL1B FC ([2]; Table S3, THP-1, 12 h): 0,13 fold
IRF3 FC ([2]; Table S3, THP-1, 12 h): 0,95 fold
LAMB1 FC ([2]; Table S3, THP-1, 12 h): 3,83 fold
LAMB4 FC ([2]; Table S3, THP-1, 12 h): 5,61 fold
MMP8 FC ([2]; Table S3, THP-1, 12 h): 0,21 fold
MMP9 FC ([2]; Table S3, THP-1, 12 h): 0,51 fold
MMP12 FC ([2]; Table S3, THP-1, 12 h): 0,25 fold
NLRP3 FC ([2]; Table S3, THP-1, 12 h): 0,43 fold
NOD2 FC ([2]; Table S3, THP-1, 12 h): 0,78 fold
NOXA1 FC ([2]; Table S3, THP-1, 12 h): 0,67 fold
SOCS1 FC ([2]; Table S3, THP-1, 12 h): 0,37 fold
SOCS3 FC ([2]; Table S3, THP-1, 12 h): 1,14 fold
SOD1 FC ([2]; Table S3, THP-1, 12 h): 2,71 fold
SOD2 FC ([2]; Table S3, THP-1, 12 h): 0,36 fold
STAT1 FC ([2]; Table S3, THP-1, 12 h): 1,02 fold
TBK1 FC ([2]; Table S3, THP-1, 12 h): 1,06 fold
TLR4 FC ([2]; Table S3, THP-1, 12 h): 0,26 fold
TNFRSF1B FC ([2]; Table S3, THP-1, 12 h): 0,27 fold
TRAP1 FC ([2]; Table S3, THP-1, 12 h): 0,64 fold
cGAS FC ([2]; Table S3, THP-1, 12 h): 1,19 fold
number of upregulated genes not shared by the other groups ([2]; WT, 12 h, CDDO-Me 0.1 µM, DMF 10 µM): > 500 genes
Average FC of upregulated Nrf2-dependent genes [2, 3]: 5.0 fold
number of upregulated genes (FC >2.0, p-adj <0.05) [2, 3]: 1091 genes

O=C(O)CCc1cccc(OCC(=O)NC2CCCCC2)c1 [Compound 2]
activity in FP competition assay (human Keap1 Kelch): inactive

O=C(COc1cccc(N2CCC(C(=O)O)CC2)c1)NC1CCCCC1 [Compound 3]
Ki (human Keap1 Kelch; [4]): 162000 ± 22000 nM
Ki (human Keap1 Kelch; Ki (FP), mean): 160000 nM
ligand efficiency (LE) (human Keap1 Kelch): 0.20

O=C(O)CCc1ccc2ccc(OCC(=O)NC3CCCCC3)cc2c1 [Compound 4]
Ki (human Keap1 Kelch; [4]): 15500 ± 1300 nM
Ki (human Keap1 Kelch; Ki (FP), mean): 16000 nM
ligand efficiency (LE) (human Keap1 Kelch): 0.25

O=C(O)CCc1ccc2ccc(OCC(=O)NC3CCOCC3)cc2c1 [Compound 5]
Ki (human Keap1 Kelch; [4]): 38300 ± 2900 nM
Ki (human Keap1 Kelch; Ki (FP), mean): 38000 nM

O=C(O)CCc1ccc2ccc(OCC(=O)NN3CCOCC3)cc2c1 [Compound 6]
Ki (human Keap1 Kelch; [4]): 268000 ± 29000 nM
Ki (human Keap1 Kelch; Ki (FP), mean): 270000 nM

O=C(O)CCc1ccc2ccc(OCC(=O)NC3CCCCCC3)cc2c1 [Compound 7]
fold improvement in binding affinity (FP) over parent analogue (human Keap1 Kelch): 2 fold
Ki (human Keap1 Kelch; [4]): 6560 ± 580 nM
Ki (human Keap1 Kelch; Ki (FP), mean): 6600 nM
ligand efficiency (LE) (human Keap1 Kelch): 0.26

O=C(O)CCc1ccc2ccc(OCC(=O)Nc3ccccc3)cc2c1 [Compound 8]
Ki (human Keap1 Kelch; [4]): 10200 ± 2400 nM
Ki (human Keap1 Kelch; Ki (FP), mean): 10000 nM

COc1ccc(NC(=O)COc2ccc3ccc(CCC(=O)O)cc3c2)cc1 [Compound 9]
Ki (human Keap1 Kelch; [4]): 69600 ± 9400 nM
Ki (human Keap1 Kelch; Ki (FP), mean): 70000 nM

Cc1cc(C)c(NC(=O)COc2ccc3ccc(CCC(=O)O)cc3c2)c(C)c1 [Compound 10]
Ki (human Keap1 Kelch; [4]): 21300 ± 710 nM
Ki (human Keap1 Kelch; Ki (FP), mean): 21000 nM

Cc1cc(C)c(C)c(NC(=O)COc2ccc3ccc(CCC(=O)O)cc3c2)c1C [Compound 11]
Ki (human Keap1 Kelch; [4]): 196000 ± 24000 nM
Ki (human Keap1 Kelch; Ki (FP), mean): 200000 nM

O=C(O)CC(c1ccccc1)c1ccc2ccc(OCC(=O)NC3CCCCCC3)cc2c1 (centres unmarked) [Compound 12]
fold improvement in binding affinity (FP) over parent analogue (human Keap1 Kelch): 6 fold
Ki (human Keap1 Kelch; [4]): 1060 ± 99 nM
Ki (human Keap1 Kelch; Ki (FP), mean): 1100 nM
ligand efficiency (LE) (human Keap1 Kelch): 0.25

COc1ccc(C(CC(=O)O)c2ccc3ccc(OCC(=O)NC4CCCCCC4)cc3c2)cc1 (centres unmarked) [Compound 13]
fold improvement in binding affinity (FP) over parent analogue (human Keap1 Kelch): 34 fold
Ki (human Keap1 Kelch; [4]): 31.6 ± 2.6 nM
Ki (human Keap1 Kelch; [5]): 32 nM
ligand efficiency (LE) (human Keap1 Kelch): 0.29

COc1cccc(C(CC(=O)O)c2ccc3ccc(OCC(=O)NC4CCCCCC4)cc3c2)c1 (centres unmarked) [Compound 14]
Ki (human Keap1 Kelch; [4]): 284 ± 31 nM
Ki (human Keap1 Kelch; [5]): 280 nM

O=C(O)CC(c1ccc(Cl)cc1)c1ccc2ccc(OCC(=O)NC3CCCCCC3)cc2c1 (centres unmarked) [Compound 15]
Ki (human Keap1 Kelch; [4]): 294 ± 25 nM
Ki (human Keap1 Kelch; [5]): 290 nM

O=C(O)CC(c1cccc(Cl)c1)c1ccc2ccc(OCC(=O)NC3CCCCCC3)cc2c1 (centres unmarked) [Compound 16]
Ki (human Keap1 Kelch; [4]): 53.9 ± 6.1 nM
Ki (human Keap1 Kelch; [5]): 54 nM

COc1ccc(C(CC(=O)O)c2ccc3ccc(OCC(=O)NC4CCCCCC4)cc3c2)c(C)c1 (centres unmarked) [Compound 17]
Ki (human Keap1 Kelch; [4]): 23.6 ± 2.2 nM
Ki (human Keap1 Kelch; [5]): 24 nM

Cc1c(Cl)cccc1C(CC(=O)O)c1ccc2ccc(OCC(=O)NC3CCCCCC3)cc2c1 (centres unmarked) [Compound 18]
Ki (human Keap1 Kelch; [4]): 59.5 ± 8.4 nM
Ki (human Keap1 Kelch; [5]): 60 nM

O=C(O)CC(c1ccc2c(c1)OCO2)c1ccc2ccc(OCC(=O)NC3CCCCCC3)cc2c1 (centres unmarked) [Compound 19]
Ki (human Keap1 Kelch; [4]): 23.2 ± 1.3 nM
Ki (human Keap1 Kelch; [5]): 23 nM
ligand efficiency (LE) (human Keap1 Kelch): 0.29

O=C(O)CC(c1ccc2c(c1)CCO2)c1ccc2ccc(OCC(=O)NC3CCCCCC3)cc2c1 (centres unmarked) [Compound 20]
Ki (human Keap1 Kelch; [4]): 35.5 ± 3.4 nM
Ki (human Keap1 Kelch; [5]): 36 nM

O=C(O)CC(c1ccc2ccc(OCC(=O)NC3CCCCCC3)cc2c1)c1ccc2occc2c1 (centres unmarked) [Compound 21]
Ki (human Keap1 Kelch; [4]): 38.3 ± 1.6 nM
Ki (human Keap1 Kelch; [5]): 38 nM

O=C(O)CC(c1ccc2c(c1)OC(F)(F)O2)c1ccc2ccc(OCC(=O)NC3CCCCCC3)cc2c1 (centres unmarked) [Compound 22]
Ki (human Keap1 Kelch; [4]): 33.8 ± 4.7 nM
Ki (human Keap1 Kelch; [5]): 34 nM

O=C(O)CC(c1ccc2c(c1)OCCO2)c1ccc2ccc(OCC(=O)NC3CCCCCC3)cc2c1 (centres unmarked) [Compound 23]
Ki (human Keap1 Kelch; [5]): 15 nM
